Measured values taken from the kinase profiling compilation of Christmann-Franck et al. (2016).

Assays:
Assay in all cases: radiometric filter-binding kinase assay
NEK2 (human) = NEK2 (human) (UniProt P51955)
PHKG1 (human) = PHKG1 (human) (UniProt Q16816)
IKBKB (human) = IKBKB (human) (UniProt O14920)
CAMKK2 (human) = CAMKK2 (human) (UniProt Q96RR4)
MAPK15 (human) = MAPK15 (human) (UniProt Q8TD08)
CHEK1 (human) = CHEK1 (human) (UniProt O14757)
MAPK1 (human) = MAPK1 (human) (UniProt P28482)
PKN2 (human) = PKN2 (human) (UniProt Q16513)
MAP2K1 (human) = MAP2K1 (human) (UniProt Q02750)
Chain of MAP2K1 (human) (Q02750 whole entry, looked up): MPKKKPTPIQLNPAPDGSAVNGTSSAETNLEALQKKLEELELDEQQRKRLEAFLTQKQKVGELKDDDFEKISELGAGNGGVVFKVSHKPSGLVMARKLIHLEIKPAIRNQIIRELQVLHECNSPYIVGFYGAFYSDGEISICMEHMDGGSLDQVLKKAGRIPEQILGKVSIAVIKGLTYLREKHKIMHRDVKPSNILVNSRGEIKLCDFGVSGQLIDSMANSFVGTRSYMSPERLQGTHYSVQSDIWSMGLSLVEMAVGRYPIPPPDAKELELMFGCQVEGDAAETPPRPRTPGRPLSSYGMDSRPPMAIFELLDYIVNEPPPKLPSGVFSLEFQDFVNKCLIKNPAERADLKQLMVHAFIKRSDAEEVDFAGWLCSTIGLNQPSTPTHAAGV

[1] = system: AKT2 (human), P31751 [S474D]
AURKB (human) = AURKB (human) (UniProt Q96GD4)
STK3 (human) = STK3 (human) (UniProt Q13188)
RPS6KA1 KD1 KD2 (human) = RPS6KA1 KD1 KD2 (human) (UniProt Q15418)
MKNK2 (human) = MKNK2 (human) (UniProt Q9HBH9)
CHEK2 (human) = CHEK2 (human) (UniProt O96017)
Chain of CHEK2 (human) (O96017 whole entry, looked up): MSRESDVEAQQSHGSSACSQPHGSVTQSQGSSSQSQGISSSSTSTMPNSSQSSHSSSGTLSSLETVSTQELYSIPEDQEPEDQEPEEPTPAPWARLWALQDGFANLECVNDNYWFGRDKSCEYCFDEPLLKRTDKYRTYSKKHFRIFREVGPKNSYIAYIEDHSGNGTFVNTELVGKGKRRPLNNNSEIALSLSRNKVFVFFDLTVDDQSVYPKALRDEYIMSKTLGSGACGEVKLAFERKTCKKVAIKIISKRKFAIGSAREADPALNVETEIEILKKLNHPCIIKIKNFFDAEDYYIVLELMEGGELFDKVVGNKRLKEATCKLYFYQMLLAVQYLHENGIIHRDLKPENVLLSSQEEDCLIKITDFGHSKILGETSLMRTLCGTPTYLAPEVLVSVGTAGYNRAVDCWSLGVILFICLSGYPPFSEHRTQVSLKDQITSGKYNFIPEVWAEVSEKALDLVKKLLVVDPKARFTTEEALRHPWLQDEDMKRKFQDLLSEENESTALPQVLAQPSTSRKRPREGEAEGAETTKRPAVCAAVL

MKNK1 (human) = MKNK1 (human) (UniProt Q9BUB5)
MAPK3 (human) = MAPK3 (human) (UniProt P27361)
YES1 (human) = YES1 (human) (UniProt P07947)
Chain of YES1 (human) (P07947 whole entry, looked up): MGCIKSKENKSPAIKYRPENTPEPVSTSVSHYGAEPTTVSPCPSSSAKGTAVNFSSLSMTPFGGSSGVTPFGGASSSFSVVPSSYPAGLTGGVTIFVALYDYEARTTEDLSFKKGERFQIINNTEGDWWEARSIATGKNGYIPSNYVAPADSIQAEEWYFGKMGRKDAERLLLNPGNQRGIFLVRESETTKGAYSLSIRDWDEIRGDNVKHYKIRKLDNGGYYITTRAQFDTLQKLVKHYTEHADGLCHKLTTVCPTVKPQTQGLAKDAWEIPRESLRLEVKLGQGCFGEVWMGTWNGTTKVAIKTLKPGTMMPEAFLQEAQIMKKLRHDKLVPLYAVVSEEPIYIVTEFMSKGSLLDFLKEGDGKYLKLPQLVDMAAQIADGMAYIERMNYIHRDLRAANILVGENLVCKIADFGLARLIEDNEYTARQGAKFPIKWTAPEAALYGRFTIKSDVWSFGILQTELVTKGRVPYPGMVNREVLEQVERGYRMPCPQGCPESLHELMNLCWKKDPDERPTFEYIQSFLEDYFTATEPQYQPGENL

MAPK9 (human) = MAPK9 (human) (UniProt P45984)
PRKAA1 or PRKAA2 (rat) = settings: accession and sequence are those of the human protein
PRKACA (human) = PRKACA (human) (UniProt P17612)
PRKCA (human) = PRKCA (human) (UniProt P17252)
PIM2 (human) = PIM2 (human) (UniProt Q9P1W9)
Chain of PIM2 (human) (Q9P1W9 whole entry, looked up): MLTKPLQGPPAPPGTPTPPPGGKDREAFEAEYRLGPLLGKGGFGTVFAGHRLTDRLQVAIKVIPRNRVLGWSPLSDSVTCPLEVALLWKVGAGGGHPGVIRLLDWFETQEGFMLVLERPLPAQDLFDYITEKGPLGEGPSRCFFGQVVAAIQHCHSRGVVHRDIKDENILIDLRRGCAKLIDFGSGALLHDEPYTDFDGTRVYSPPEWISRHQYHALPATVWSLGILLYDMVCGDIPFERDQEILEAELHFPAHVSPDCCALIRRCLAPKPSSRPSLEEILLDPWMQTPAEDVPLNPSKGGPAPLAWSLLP

SRC (human) = SRC (human) (UniProt P12931)
Chain of SRC (human) (P12931 whole entry, looked up): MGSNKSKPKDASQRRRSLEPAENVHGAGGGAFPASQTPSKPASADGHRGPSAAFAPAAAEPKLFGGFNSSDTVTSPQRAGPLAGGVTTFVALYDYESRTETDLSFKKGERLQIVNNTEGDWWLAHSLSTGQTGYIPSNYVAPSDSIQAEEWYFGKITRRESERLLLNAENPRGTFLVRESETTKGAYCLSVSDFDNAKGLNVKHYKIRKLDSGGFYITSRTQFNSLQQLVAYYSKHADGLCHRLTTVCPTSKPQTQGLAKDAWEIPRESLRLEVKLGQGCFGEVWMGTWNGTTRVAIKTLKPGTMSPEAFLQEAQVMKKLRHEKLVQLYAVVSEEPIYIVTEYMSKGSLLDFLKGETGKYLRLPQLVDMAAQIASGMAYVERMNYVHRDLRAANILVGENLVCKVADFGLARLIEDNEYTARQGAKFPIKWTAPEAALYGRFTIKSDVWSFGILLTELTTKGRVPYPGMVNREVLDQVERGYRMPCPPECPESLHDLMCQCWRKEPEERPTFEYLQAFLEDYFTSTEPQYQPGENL

IGF1R (human) = IGF1R (human) (UniProt P08069)
MAPKAPK2 (human) = MAPKAPK2 (human) (UniProt P49137)
Chain of MAPKAPK2 (human) (P49137 whole entry, looked up): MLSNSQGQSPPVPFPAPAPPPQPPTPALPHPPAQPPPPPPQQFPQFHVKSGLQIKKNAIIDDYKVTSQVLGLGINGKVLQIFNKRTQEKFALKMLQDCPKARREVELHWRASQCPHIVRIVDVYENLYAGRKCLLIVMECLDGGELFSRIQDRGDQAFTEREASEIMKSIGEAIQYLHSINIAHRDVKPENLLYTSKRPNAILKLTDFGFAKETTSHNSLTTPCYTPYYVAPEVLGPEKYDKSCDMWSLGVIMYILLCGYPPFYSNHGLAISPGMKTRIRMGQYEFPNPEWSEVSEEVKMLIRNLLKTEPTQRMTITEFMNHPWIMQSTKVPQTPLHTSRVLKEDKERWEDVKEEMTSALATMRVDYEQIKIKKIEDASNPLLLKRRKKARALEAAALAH

Chain of CAMKK2 (human) (Q96RR4 whole entry, looked up): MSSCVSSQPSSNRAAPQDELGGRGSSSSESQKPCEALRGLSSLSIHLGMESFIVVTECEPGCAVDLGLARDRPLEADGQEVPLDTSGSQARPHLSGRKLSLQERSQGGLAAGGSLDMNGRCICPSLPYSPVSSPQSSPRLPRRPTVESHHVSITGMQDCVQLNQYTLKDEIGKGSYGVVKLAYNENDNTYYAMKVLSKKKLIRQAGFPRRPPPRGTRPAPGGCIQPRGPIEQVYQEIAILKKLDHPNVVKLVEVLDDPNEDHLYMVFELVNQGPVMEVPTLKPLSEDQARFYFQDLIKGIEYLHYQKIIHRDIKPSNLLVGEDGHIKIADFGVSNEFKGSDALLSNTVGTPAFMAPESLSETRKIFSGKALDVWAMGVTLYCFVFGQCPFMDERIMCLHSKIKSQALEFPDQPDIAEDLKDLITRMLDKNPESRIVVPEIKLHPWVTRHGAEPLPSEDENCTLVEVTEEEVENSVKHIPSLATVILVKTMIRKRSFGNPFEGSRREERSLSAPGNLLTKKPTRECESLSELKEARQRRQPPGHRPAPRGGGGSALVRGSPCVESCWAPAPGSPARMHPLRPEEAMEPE
Chain of MAPK1 (human) (P28482 whole entry, looked up): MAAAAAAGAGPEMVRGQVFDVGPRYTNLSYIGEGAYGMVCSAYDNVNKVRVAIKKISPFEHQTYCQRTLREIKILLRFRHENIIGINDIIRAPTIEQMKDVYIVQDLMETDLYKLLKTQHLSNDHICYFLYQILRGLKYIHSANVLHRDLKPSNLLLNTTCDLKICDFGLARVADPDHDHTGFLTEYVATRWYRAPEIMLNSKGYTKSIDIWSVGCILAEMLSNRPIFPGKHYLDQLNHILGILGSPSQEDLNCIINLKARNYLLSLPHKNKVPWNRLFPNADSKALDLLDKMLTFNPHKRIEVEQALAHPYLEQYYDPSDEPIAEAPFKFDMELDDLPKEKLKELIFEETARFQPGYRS
Chain of MAPK15 (human) (Q8TD08 whole entry, looked up): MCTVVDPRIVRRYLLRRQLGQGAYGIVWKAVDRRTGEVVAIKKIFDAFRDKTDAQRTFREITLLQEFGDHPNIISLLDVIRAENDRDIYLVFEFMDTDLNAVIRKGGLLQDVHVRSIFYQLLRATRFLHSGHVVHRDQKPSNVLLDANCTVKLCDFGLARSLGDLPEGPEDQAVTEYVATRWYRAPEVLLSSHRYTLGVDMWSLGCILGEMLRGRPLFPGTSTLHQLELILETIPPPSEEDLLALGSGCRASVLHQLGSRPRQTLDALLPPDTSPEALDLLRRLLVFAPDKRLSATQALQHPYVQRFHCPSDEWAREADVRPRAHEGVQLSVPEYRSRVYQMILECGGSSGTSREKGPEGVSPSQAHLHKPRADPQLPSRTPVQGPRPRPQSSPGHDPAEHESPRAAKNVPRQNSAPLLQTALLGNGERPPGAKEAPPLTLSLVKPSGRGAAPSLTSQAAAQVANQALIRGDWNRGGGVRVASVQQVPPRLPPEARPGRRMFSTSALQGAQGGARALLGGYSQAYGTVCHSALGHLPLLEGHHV
Chain of IKBKB (human) (O14920 whole entry, looked up): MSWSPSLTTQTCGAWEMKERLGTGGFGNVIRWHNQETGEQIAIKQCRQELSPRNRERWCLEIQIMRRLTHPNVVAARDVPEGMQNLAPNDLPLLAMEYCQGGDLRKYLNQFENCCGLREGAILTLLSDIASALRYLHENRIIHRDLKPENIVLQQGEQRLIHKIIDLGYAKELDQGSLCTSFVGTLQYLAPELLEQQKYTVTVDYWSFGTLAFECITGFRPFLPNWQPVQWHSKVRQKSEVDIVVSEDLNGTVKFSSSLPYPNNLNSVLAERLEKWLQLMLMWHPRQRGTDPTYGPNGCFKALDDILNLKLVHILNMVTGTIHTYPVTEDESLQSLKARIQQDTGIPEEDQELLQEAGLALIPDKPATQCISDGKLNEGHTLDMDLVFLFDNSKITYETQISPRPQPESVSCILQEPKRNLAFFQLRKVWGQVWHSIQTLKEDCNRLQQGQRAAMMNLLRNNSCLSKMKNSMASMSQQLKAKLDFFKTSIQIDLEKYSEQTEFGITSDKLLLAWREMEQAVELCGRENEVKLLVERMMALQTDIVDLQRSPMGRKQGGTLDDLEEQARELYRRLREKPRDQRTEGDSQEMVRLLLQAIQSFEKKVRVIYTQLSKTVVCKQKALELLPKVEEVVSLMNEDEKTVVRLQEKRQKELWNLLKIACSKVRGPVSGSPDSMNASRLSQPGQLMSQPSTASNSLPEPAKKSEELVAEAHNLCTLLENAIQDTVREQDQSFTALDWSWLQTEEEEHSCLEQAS

For C[C@H]1CCCC(=O)CCC/C=C/c2cc(O)cc(O)c2C(=O)O1, the residual activity (NEK2 (human); compound 1.0 µM) was 93%, the residual activity (NEK2 (human); compound 10.0 µM) was 96% and the residual activity (PHKG1 (human); compound 1.0 µM) was 102%. The residual activity (PHKG1 (human); compound 10.0 µM) was 86%, the residual activity (IKBKB (human); compound 1.0 µM) was 101% and the residual activity (IKBKB (human); compound 10.0 µM) was 78%. The residual activity (CAMKK2 (human); compound 1.0 µM) was 90%, the residual activity (CAMKK2 (human); compound 10.0 µM) was 52% and the residual activity (MAPK15 (human); compound 1.0 µM) was 77%. For the same compound, the residual activity (MAPK15 (human); compound 10.0 µM) was 26%, the residual activity (CHEK1 (human); compound 1.0 µM) was 92% and the residual activity (CHEK1 (human); compound 10.0 µM) was 81%. The residual activity (MAPK1 (human); compound 1.0 µM) was 98%, the residual activity (MAPK1 (human); compound 10.0 µM) was 96% and the residual activity (PKN2 (human); compound 1.0 µM) was 70%. For the same compound, the residual activity (PKN2 (human); compound 10.0 µM) was 33%, the residual activity (MAP2K1 (human); compound 1.0 µM) was 66% and the residual activity (MAP2K1 (human); compound 10.0 µM) was 55%. It also gave a residual activity ([1]; compound 1.0 µM) of 97%, a residual activity ([1]; compound 10.0 µM) of 89% and a residual activity (AURKB (human); compound 1.0 µM) of 37%. For the same compound, the residual activity (AURKB (human); compound 10.0 µM) was 23%, the residual activity (STK3 (human); compound 1.0 µM) was 119% and the residual activity (STK3 (human); compound 10.0 µM) was 113%. It also gave a residual activity (RPS6KA1 KD1 KD2 (human); compound 1.0 µM) of 89%, a residual activity (RPS6KA1 KD1 KD2 (human); compound 10.0 µM) of 41% and a residual activity (MKNK2 (human); compound 1.0 µM) of 64%. The residual activity (MKNK2 (human); compound 10.0 µM) was 23%, the residual activity (CHEK2 (human); compound 1.0 µM) was 93% and the residual activity (CHEK2 (human); compound 10.0 µM) was 73%. The residual activity (MKNK1 (human); compound 1.0 µM) was 89%, the residual activity (MKNK1 (human); compound 10.0 µM) was 46% and the residual activity (MAPK3 (human); compound 1.0 µM) was 113%. For the same compound, the residual activity (MAPK3 (human); compound 10.0 µM) was 107%, the residual activity (YES1 (human); compound 1.0 µM) was 79% and the residual activity (YES1 (human); compound 10.0 µM) was 35%. It also gave a residual activity (MAPK9 (human); compound 1.0 µM) of 46%, a residual activity (MAPK9 (human); compound 10.0 µM) of 65% and a residual activity (PRKAA1 or PRKAA2 (rat); compound 1.0 µM) of 94%. It also gave a residual activity (PRKAA1 or PRKAA2 (rat); compound 10.0 µM) of 60%, a residual activity (PRKACA (human); compound 1.0 µM) of 97% and a residual activity (PRKACA (human); compound 10.0 µM) of 91%. It also gave a residual activity (PRKCA (human); compound 1.0 µM) of 54%, a residual activity (PRKCA (human); compound 10.0 µM) of 69% and a residual activity (PIM2 (human); compound 1.0 µM) of 86%. The residual activity (PIM2 (human); compound 10.0 µM) was 45%, the residual activity (SRC (human); compound 1.0 µM) was 89% and the residual activity (SRC (human); compound 10.0 µM) was 34%. It also gave a residual activity (IGF1R (human); compound 1.0 µM) of 93%, a residual activity (IGF1R (human); compound 10.0 µM) of 64% and a residual activity (MAPKAPK2 (human); compound 1.0 µM) of 101%. For the same compound, the residual activity (MAPKAPK2 (human); compound 10.0 µM) was 92%.
